Reference: US10016444B2, “Molecules for bone tissue regeneration” (ISTITUTO ORTOPEDICO RIZZOLI, priority 2014, dated 2018)

Experiments:
[1] = Determination of the release of H2S by amperometry; type: physicochemical
Protocol: Amperometry—the potential release of H2S from the tested compound was evaluated by means of the amperometric method, using an Apollo-4000 Free Radical Analyzer (WPI) connected to mini-electrodes selective for H2S. The experiments were conducted at room temperature in phosphate buffer (NaH2PO4.H2O 0.128 g, Na2HPO4.12H2O 0.597 g, NaCl 4.388 g in 500 mL H2O) at pH 7.4. When required by the experimental protocol, 4 mM L-cysteine was also dissolved in the above-described phosphate buffer, maintaining the pH a 7.4. After stabilisation of the mini-electrodes selective for H2S in 10 mL of buffer, 100 μL of the compound DM-22 solubilised in DMSO was added at the final concentration of 1 mM. The formation of H2S was recorded for 20 minutes. The same experimental procedure was also carried out in the buffer containing L-cysteine. The correspondence between the amperometric currents (recorded in pA) and the concentrations of H2S was determined by means of suitable calibration curves previously obtained using increasing concentrations of NaHS (1 μM, 3 μM, 5 μM, 10 μM) at pH 4.
The curves related to the progressive release of H2S as a function of time were analysed by means of the following equation: Ct=Cmax−(Cmax·e−k·t)
Where Ct is the concentration at time t, Cmax is the maximum concentration obtained during the recording time and the constant k is 0.693/t½, and where t½ is the time it takes to reach half of Cmax. The values of Cmax and t½ were calculated by means of software: Graph Pad Prism 4.0 and expressed as a value±standard error.

[2] = test system: human mesenchymal stem cells (MSCs); assay: Cell viability by Toluidine Blue staining of MSCs; type: cell-based; settings: 72 h, 33 μM
Excerpt: At the end of the period of culture, moreover, the MSCs underwent staining with Toluidine Blue stain in order to evaluate the residual viability, which was then quantified by means of a spectrophotometer (Nanoquant, Tecan Group, Mannedorf, Switzerland).

[3] = test system: human mesenchymal stem cells (MSCs); assay: Cell proliferation of MSCs by tritiated thymidine method; type: cell-based; settings: 33 μM, both at 24 and 72 h after stimulation, vs unstimulated control
Protocol: Cell proliferation was measured in the MSCs by means of the tritiated thymidine method, in the presence or absence of stimuli, following a method already published in precedence (Gabusi E. et al. J Cell Physiol. 2011). […] After 48 h, tritiated thymidine (Amersham Pharmacia Biotech Italy, Milan) was added to each well at the final concentration of 2 mCi/ml and the culture further incubated for 18 h at 37° C. Lastly, the plates were aspirated through glass fibre filters and dried and the radioactivity incorporated in the cells, indicative of proliferative activity, was measured by means of a TopCount Microplate Scintillation Counter (Packard Instrument Company, Meriden, Conn.). The data are expressed as cpm (count per minute).

[4] = test system: human mesenchymal stem cells (MSCs); assay: Mineralisation assay on MSCs (Alizarin Red); type: cell-based; settings: for mineralising capacity of MSCs (Alizarin Red): osteogenic conditions, dose dependence
Protocol: The evaluation of the functional capacity to deposit inorganic matrix on the part of MSC cells was evaluated with an in vitro mineralisation assay, according to an already consolidated method (Grassi F. et al. J. Tissue Eng Reg Med, 2013); MSC cells were maintained under culture for 21 days in the presence of […] of ascorbic acid, 2 mM of β-glycerophosphate and 100 nM of dexamethasone. […] Finally, the mineralised matrix was visualised by staining with Alizarin Red and quantified by spectrophotometry (Nanoquant, Tecan Group, Mannedorf, Switzerland).

[5] = test system: human osteoclasts (OCs); assay: Differentiation of human osteoclasts (TRAP staining count); type: cell-based; settings: for inhibition of OC differentiation (number of TRAP-positive mature OCs): monocyte precursors with M-CSF and RANKL, 8 days, 1-33 μM
Excerpt: Human osteoclasts (OCs) were obtained according to a method already described and published (Grassi F. et al. J Cell Physiology 2011 April; 226(4):982-90). Briefly, the OCs were differentiated in vitro starting from monocytic precursors obtained from the peripheral blood of healthy, consenting donors; in particular, whole blood was stratified on Ficoll-Hypaque and the mononuclear cells were obtained by centrifugation. Monocytes were isolated from the latter by immunomagnetic separation of cells positive to the antigen CD11b via a MACS apparatus (Miltenyi Biotech, Calderara di Reno, Bologna). […] The number of mature OCs obtained for each condition of stimulation was then identified by means of a manual count, under a microscope, of the multinuclear cells positive to tartrate-resistant acid phosphatase (TRAP) staining.

[6] = test system: human osteoclasts (OCs); settings: OCs on Biocoat Osteologic slides, qualitative evaluation
Protocol: The ability of OCs to perform a physiological function of degrading the inorganic matrix was assessed by means of the ‘Pit Assay’, in which the OCs were cultured on Biocoat Osteologic (BD Bioscience) slides according to the procedure described in detail above.

[7] = test system: human mesenchymal stem cells (MSCs)
Protocol: Briefly, 5 ml of bone marrow aspirate was obtained from consenting patients who underwent post-traumatic orthopaedic surgery. The mononuclear cells were obtained following centrifugation in a density gradient (Ficoll-Hypaque); the cells thus obtained were washed with PBS, resuspended in a D-MEM culture medium containing 15% FBS, then counted and seeded in plastic flasks at a concentration of 2×10^6 cells/flask T150. After 1 week, the non-adherent cells were removed and the adherent cells expanded in culture up to the concentration of 5000 MSC/cm^2 and used, finally, in the culture passage p.1 for the experiments.
Cytoxicity was evaluated in the culture after 24 h and 72 h by means of the lactate dehydrogenase (LDH) method, using a commercial kit (Cytotoxicity Detection Kit, Roche, Milan). In order to avoid interferences due to components present in serum, the cells were maintained under low serum conditions (5%) in the culture medium.

SMILES: O=C(NCCCC(O)(P(=O)(O)O)P(=O)(O)O)c1ccc(N=C=S)cc1 [DM-22]
- concentration of H2S detected after 20 minutes of incubation ([1]; 1 mM compound in phosphate buffer pH 7.4, room temperature, no L-cysteine): approximately 1.5 μM
- maximum concentration of H2S detected after 20 minutes of incubation ([1]; 1 mM compound in phosphate buffer pH 7.4 in the presence of 4 mM L-cysteine): approximately 45 μM
- liberation of H2S ([1]; summary statement): capable of liberating H2S with slow-release kinetics
- cell viability (Toluidine Blue) compared to the unstimulated control [2]: does not bring about any decrease
- proliferative activity in MSCs [3]: does not induce any significant decrease in proliferation
- mineralisation compared to MSCs treated with alendronate ([4]; 21 days, concentrations of 3.3, 10 and 33 μM): significantly greater mineralisation
- degree of mineralisation compared to control MSCs ([4]; 21 days, maximum concentration of 33 μM): significantly greater than that of the control MSCs
- mineralising capacity of MSCs (Alizarin Red) ([4]; 21 days): dose-dependent capacity to induce mineralisation
- range of concentration in which it stimulates the anabolic function and significantly inhibits osteoclasts ([4]; summary statement): 10 to 33 µM
- times less effective than alendronate in suppressing OCs ([5]; concentrations being equal): 33-100 times
- inhibition of OC differentiation (number of TRAP-positive mature OCs) [5]: statistically significant only at the highest concentration (33 μM)
- inhibition of erosive capacity of OCs (pits, qualitative) [6]: only at the concentrations of 10 and 33 μM do the eroded areas disappear completely
- cytotoxicity (LDH assay) ([7]; 1-33 μM, at both 24 h and 72 h, low serum (5%)): does not induce any cytotoxicity
- cytotoxicity (LDH assay) compared to the basal level induced by serum deprivation ([7]; 24 h): significant protection
- cellular toxicity (LDH assay) ([7]; 72 h, 33 μM): completely absent

SMILES: [Na+].[SH-] [NaHS, reference compound]
- mineralising capacity of MSCs (Alizarin Red) ([4]; 21 days): respond as expected

SMILES: NCCCC(O)(P(=O)(O)O)P(=O)(O)O [alendronate, reference compound]
- cell viability (Toluidine Blue) compared to the unstimulated control [2]: significant decrease in cell viability
- proliferative activity in MSCs [3]: significant inhibition of proliferative activity
- inhibition of OC differentiation (number of TRAP-positive mature OCs) [5]: strong capacity to inhibit OC differentiation starting from the lowest concentration used in the study (1 μM)

SMILES: [Ca+2].[Cl-].[Cl-] [calcium chloride, reference compound]
- mineralising capacity of MSCs (Alizarin Red) ([4]; 21 days): respond as expected
